A short description of data set [1]: stability of the solid form under mechanical stress (grinding and milling). The data set is classed as physicochemical. The source says: (§1) The present application provides a stable amorphous form of Venetoclax devoid of the problems indicated in the prior art and suitable for powder handling and downstream processes.
A short description of data set [2]: stability of the solid form under hygroscopic conditions (higher relative humidity). It counts as physicochemical. The conditions noted are these: higher relative humidity conditions of more than 60% RH.
Text: as §1

Data set [3] can be described thus: stability of the crystalline form over time. It counts as physicochemical. On the procedure: In an embodiment, drying crystalline Form RT2 of Venetoclax may be carried out at temperatures and times sufficient to achieve desired quality of product. Drying may be carried out at about 30° C. or above at which crystalline form RT2 is stable and for any time period required for obtaining a desired quality, such as from about 5 minutes to 10 hours or longer. Crystalline form RT2 is stable for 3 months period or longer.

The test system of data set [4] is tumor cells that overexpress BCL-2. As to conditions: nonclinical studies; cited from earlier work.

Molecules are shown by their SMILES.

`CC1(C)CCC(CN2CCN(c3ccc(C(=O)NS(=O)(=O)c4ccc(NCC5CCOCC5)c([N+](=O)[O-])c4)c(Oc4cnc5[nH]ccc5c4)c3)CC2)=C(c2ccc(Cl)cc2)C1` [Amorphous form of Venetoclax]: the “stability under mechanical stress” value in data set [1] is “highly stable”. Further, the “stability under hygroscopic conditions” value in data set [2] was “stable”. Consider `CC1(C)CCC(CN2CCN(c3ccc(C(=O)NS(=O)(=O)c4ccc(NCC5CCOCC5)c([N+](=O)[O-])c4)c(Oc4cnc5[nH]ccc5c4)c3)CC2)=C(c2ccc(Cl)cc2)C1` [Crystalline form RT2], for which the “period for which the crystalline form is stable” value in data set [3] is on record as no less than 3 months. `CC1(C)CCC(CN2CCN(c3ccc(C(=O)NS(=O)(=O)c4ccc(NCC5CCOCC5)c([N+](=O)[O-])c4)c(Oc4cnc5[nH]ccc5c4)c3)CC2)=C(c2ccc(Cl)cc2)C1` [Venetoclax]: in data set [4], the cytotoxic activity result is listed as “demonstrated cytotoxic activity”.

Source of the values: patent publication US20190185471A1, “SOLID FORMS OF VENETOCLAX AND PROCESSES FOR THE PREPARATION OF VENETOCLAX” (DR. REDDY'S LABORATORIES LIMITED, priority 2016, published 2019).
